Data: patent publication US20260257992A1, “AGONISTS OF SMALL HETERODIMER PARTNER FOR CANCER THERAPY” (THE BOARD OF TRUSTEES OF THE UNIVERSITY OF ILLINOIS, priority 2023, published 2026)

Columns and labels:
Treg expansion = Treg expansion in co-culture with compound-treated splenic CD11C+ dendritic cells; type: cell-based, mouse; parameters: key to Treg expansion Dendritic Cells: ✓: using strict cutoffs with respect to DSHN for passing each metric; X: using strict cutoffs with respect to DSHN for passing each metric
Method: Preparation of Bone Marrow-Derived Macrophages (BMDMs) and Dendritic Cells. Bone marrow cells were collected from mouse tibia and femur. Cells were passed through 70-micron cell strainer and subsequently cultured 10 mL complete RPMI media supplemented with 20 ng/mL of recombinant murine M-CSF (576406; BioLegend, 315-02 PeproTech). On day 3, additional 5 ml of the complete media was added. On day 7, media was replaced. BMDMs were harvested on day 10 using cell stripper solution for further experiments. Dendritic cells were isolated from the spleens of wildtype, using mouse CD11c UltraPure MicroBeads (130-125-835; Miltenyi Biotec) according to the manufacturer's instructions) and cultured in RPMI medium supplemented with 10% heat-inactivated charcoal-stripped FBS, 50 μM β-mercaptoethanol, 1% sodium pyruvate, 1% nonessential amino acids, % penicillin/streptomycin, and 1% Glutamax.
In vitro Treg expansion assays. T cells were cultured in RPMI medium supplemented with 10% heat-inactivated charcoal-stripped FBS, 50 μM β-mercaptoethanol (Gibco), 1% sodium pyruvate, 1% nonessential amino acids, % penicillin/streptomycin, and 1% Glutamax (Gibco). Naïve CD4^+ T cells were isolated from the spleens of wildtype and OT-II, using Naive CD4^+ T Cell Isolation Kit (Miltenyi Biotec according to the manufacturer's instructions). T cells were labeled with the vital dye CFSE (BioLegend) or Cell Trace Violet (ThermoFisher) according to the manufacturer's instructions. For wildtype Treg expansion in presence of antigen presenting cells, naïve CD4^+ T cells were co-cultured with APC at indicated ratio in the presence of 0.5 μg/mL (anti-CD3 BioLegend), 0.5 ng/mL TGFβ (BioLegend) and 0.5 ng/ml IL-2 (BioLegend) for 72 hr at 37° C. For OT-II Treg expansion, OTII naïve CD4^+ T cells from OT-II mice were activated by antigen presentation by culturing BMDMs were primed with 10 μg/mL OVA323-339 (Bachem) and 0.5 μg/mL LPS (Sigma). naïve CD4+ T cells from OTII mice were co-cultured with primed APC at indicated ratio for 72 hrs. After 72 hrs of culture, cells were transferred into V-bottom plates (BD), pelleted by centrifugation and incubated with antibody staining mix containing Ghost Dye™ Red 780 viability dye diluted in PBS for 15 minutes at 4° C. Cell surface antigens were stained for 15 minutes at 4° C. with an antibody staining mix containing Ghost Dye™ Red 780 viability dye diluted in PBS. Cells were fixed and permeabilized with BD Cytofix/Cytoperm™ for 20 minutes at 4° C. Antibodies against intracellular antigens were diluted in 1×BD Perm/Wash™ buffer and cells were stained for 30 minutes at 4° C. Cytometry data were acquired on a LSRII, Fortessa, Symphony A1 (Becton Dickinson, NJ). Foxp3 induction was assessed by expression of FOXP3.

NR0B2 = biological target: T1, NR0B2 (Homo sapiens, UniProt Q15466); experiment: ABCA1 reporter screen to identify NR0B2 agonists (HepG2); type: cell-based; parameters: key: ✓: using strict cutoffs with respect to DSHN for passing each metric; X: using strict cutoffs with respect to DSHN for passing each metric; conditions: HepG2, 50 μM test compound, 1 μM GW3965; pass/fail with respect to DSHN
T1 construct: a reporter assay which makes use of the endogenous cholesterol homeostatic feedback loop; endogenous in cells; host or cells: HepG2
T1 sequence (Q15466 1-257): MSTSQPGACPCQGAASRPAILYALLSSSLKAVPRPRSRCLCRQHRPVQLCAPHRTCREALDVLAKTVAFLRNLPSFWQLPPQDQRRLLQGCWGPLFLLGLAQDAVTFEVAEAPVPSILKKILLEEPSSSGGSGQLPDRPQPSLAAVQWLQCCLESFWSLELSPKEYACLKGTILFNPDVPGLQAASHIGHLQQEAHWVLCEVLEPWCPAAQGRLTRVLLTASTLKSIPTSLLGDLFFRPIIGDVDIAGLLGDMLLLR
From the text: Development of a more efficacious NR0B2 agonist. While DSHN was a useful proof-of-concept small molecule, macrophages required high doses and chronic exposure for robust influences on subsequent Tregs expansion. […] Therefore, we synthesized several derivatives of DSHN and screened them using a reporter assay which makes use of the endogenous cholesterol homeostatic feedback loop, where FXR activation upregulates NR0B2, which then inhibits LXR and its normal induction of ABCA1. We then followed this screen with several others with stringent cutoffs: effect on endogenous ABCA1 and IL1β expression, reduction of Treg expansion in either macrophage or DC co-cultures, and low cellular toxicity (FIG. 5A, Table 4).
Screening to identify NR0B2 agonists. HepG2 cells were co-transfected with ABCA1 renilla reporter plasmid and TK-control firefly luciferase vector at 20:1 using Lipofectamine 3000 reagent according to manufacturer's instructions for 24 hrs. Afterwards, 7000 cells were seeded in to 384 well f-bottom, white plates (Greiner Bio-One). Test compounds were added to the plates in a final working volume of 30 μL (for a final concentration of 50 μM) in presence of DMSO or 1 μM GW3965 and incubated for 20-24 hrs at 37° C. Luciferase activity was measured using the Luc-Pair Duo-Luciferase HT Assay kit (GeneCopoeia, Rockville, MD, USA) by adding luciferase substrates sequentially following manufacturer instructions. Luminescence was measured with 2 s integration times in a microplate reader (BioTek Cytation 5), 15 min after adding each substrate. The addition of reagents to the microplates was timed at each step to match the reading time delays and reading sequence of the microplate reader.

CCN(CC)S(=O)(=O)c1cccc2cc(C(=O)OC)c(O)cc12 [DSHN-OMe, Methyl 5-(N,N-diethylsulfamoyl)-3-hydroxy-2-naphthoate]
Tregs, splenic CD11C+ (DC-enriched) cells (Treg expansion; 50 μM DSHN-OMe versus 100 μM DSHN): significantly fewer Tregs compared to twice the dose of DSHN
Treg expansion Dendritic Cells (Treg expansion; pass/fail with respect to DSHN): ✓
ABCA1 reporter screen (NR0B2): ✓
